Test results reported in PubChem BioAssay (NCI).
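Briefly, cells in 96-well plates were exposed to five compound concentrations for 48 h, and endpoints were estimated by linear interpolation. TGI denotes the concentration required for complete inhibition of growth.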

What was measured:
Assay in all cases: inhibition of tumour cell growth, NCI panel, 48 h
[1] = system: U251 CNS
[2] = system: UACC-62 melanoma
[3] = system: 786-0 renal
[4] = system: BT-549 breast
[5] = system: M14 melanoma
[6] = system: A498 renal
[7] = system: COLO 205 colon
[8] = system: UACC-257 melanoma
[9] = system: CAKI-1 renal
[10] = system: SR leukemia
[11] = system: NCI-H226 lung
[12] = system: HL-60(TB) leukemia
[13] = system: SK-MEL-5 melanoma
[14] = system: OVCAR-5 ovarian
[15] = system: MDA-MB-435
[16] = system: UO-31 renal
[17] = system: T-47D breast
[18] = system: RPMI-8226 leukemia
[19] = system: MDA-MB-231 breast
[20] = system: HOP-62 NSCLC
[21] = system: OVCAR-8 ovarian
[22] = system: OVCAR-4 ovarian
[23] = system: HOP-92 NSCLC
[24] = system: ACHN renal
[25] = system: HCT-116 colon
[26] = system: SNB-19 CNS
[27] = system: SW-620 colon
[28] = system: SK-OV-3 ovarian
[29] = system: IGROV1 ovarian
[30] = system: HCT-15 colon
[31] = system: CCRF-CEM leukemia
[32] = system: LOX IMVI melanoma
[33] = system: SK-MEL-2 melanoma
[34] = system: PC-3 prostate
[35] = system: DU-145 prostate
[36] = system: RXF 393 renal
[37] = system: MCF7 breast
[38] = system: NCI/ADR-RES ovarian
[39] = system: MDA-N
[40] = system: SF-539 CNS
[41] = system: OVCAR-3 ovarian
[42] = system: K-562 leukemia
[43] = system: SN12C renal
[44] = system: HCC-2998 colon
[45] = system: A549 NSCLC
[46] = system: EKVX NSCLC
[47] = system: SK-MEL-28 melanoma
[48] = system: SNB-75 CNS
[49] = system: NCI-H460 lung
[50] = system: KM12 colon
[51] = system: MOLT-4 leukemia
[52] = system: SF-295 CNS
[53] = system: HT29 colon
[54] = system: NCI-H23 lung
[55] = system: TK-10 renal
[56] = system: HS 578T breast
[57] = system: MALME-3M melanoma
[58] = system: SF-268 CNS
[59] = system: NCI-H522 lung

## NCc1ccc(O)c(O)c1
[1]
  TGI: > 100 µM
[2]
  TGI: > 100 µM
[3]
  TGI: > 100 µM
[4]
  TGI: > 100 µM
[5]
  TGI: > 100 µM
[6]
  TGI: > 100 µM
[7]
  TGI: > 100 µM
[8]
  TGI: > 100 µM
[9]
  TGI: > 100 µM
[10]
  TGI: > 100 µM
[11]
  TGI: > 100 µM
[12]
  TGI: 41 µM
[13]
  TGI: > 100 µM
[14]
  TGI: > 100 µM
[15]
  TGI: > 100 µM
[16]
  TGI: > 100 µM
[17]
  TGI: > 100 µM
[18]
  TGI: > 100 µM
[19]
  TGI: > 100 µM
[20]
  TGI: > 100 µM
[21]
  TGI: > 100 µM
[22]
  TGI: > 100 µM
[23]
  TGI: > 100 µM
[24]
  TGI: > 100 µM
[25]
  TGI: > 100 µM
[26]
  TGI: > 100 µM
[27]
  TGI: > 100 µM
[28]
  TGI: > 100 µM
[29]
  TGI: > 100 µM
[30]
  TGI: > 100 µM
[31]
  TGI: > 100 µM
[32]
  TGI: > 100 µM
[33]
  TGI: > 100 µM
[34]
  TGI: > 100 µM
[35]
  TGI: > 100 µM
[36]
  TGI: > 100 µM
[37]
  TGI: > 100 µM
[38]
  TGI: > 100 µM
[39]
  TGI: > 100 µM
[40]
  TGI: > 100 µM
[41]
  TGI: > 100 µM
[42]
  TGI: > 100 µM
[43]
  TGI: > 100 µM
[44]
  TGI: > 100 µM
[45]
  TGI: > 100 µM
[46]
  TGI: > 100 µM
[47]
  TGI: > 100 µM
[48]
  TGI: > 100 µM
[49]
  TGI: > 100 µM
[50]
  TGI: > 100 µM
[51]
  TGI: > 100 µM
[52]
  TGI: > 100 µM
[53]
  TGI: > 100 µM
[54]
  TGI: > 100 µM

## CC1=Nc2c(N)nc(N)nc2N(C)C1
[1]
  TGI: > 100 µM
[2]
  TGI: > 100 µM
[4]
  TGI: > 100 µM
[5]
  TGI: > 100 µM
[7]
  TGI: > 100 µM
[8]
  TGI: > 100 µM
[9]
  TGI: > 100 µM
[11]
  TGI: > 100 µM
[12]
  TGI: > 100 µM
[13]
  TGI: > 100 µM
[14]
  TGI: > 100 µM
[15]
  TGI: > 100 µM
[16]
  TGI: > 100 µM
[17]
  TGI: > 100 µM
[18]
  TGI: > 100 µM
[19]
  TGI: > 100 µM
[55]
  TGI: > 100 µM
[20]
  TGI: > 100 µM
[21]
  TGI: > 100 µM
[24]
  TGI: > 100 µM
[56]
  TGI: > 100 µM
[26]
  TGI: > 100 µM
[27]
  TGI: > 100 µM
[28]
  TGI: > 100 µM
[29]
  TGI: > 100 µM
[30]
  TGI: > 100 µM
[31]
  TGI: > 100 µM
[33]
  TGI: > 100 µM
[34]
  TGI: > 100 µM
[35]
  TGI: > 100 µM
[57]
  TGI: > 100 µM
[36]
  TGI: > 100 µM
[37]
  TGI: > 100 µM
[58]
  TGI: > 100 µM
[39]
  TGI: > 100 µM
[40]
  TGI: > 100 µM
[41]
  TGI: > 100 µM
[42]
  TGI: > 100 µM
[43]
  TGI: > 100 µM
[46]
  TGI: > 100 µM
[47]
  TGI: > 100 µM
[48]
  TGI: > 100 µM
[49]
  TGI: > 100 µM
[50]
  TGI: > 100 µM
[51]
  TGI: > 100 µM
[52]
  TGI: > 100 µM
[54]
  TGI: > 100 µM

## O=C(/C=C/c1ccc(OCc2ccccc2)c(OCc2ccccc2)c1)OCc1ccccc1
[1]
  TGI: > 100 µM
[2]
  TGI: > 100 µM
[3]
  TGI: > 100 µM
[4]
  TGI: > 100 µM
[5]
  TGI: > 100 µM
[6]
  TGI: > 100 µM
[7]
  TGI: > 100 µM
[8]
  TGI: > 100 µM
[9]
  TGI: > 100 µM
[10]
  TGI: > 100 µM
[11]
  TGI: > 100 µM
[12]
  TGI: > 100 µM
[13]
  TGI: > 100 µM
[14]
  TGI: > 100 µM
[15]
  TGI: > 100 µM
[16]
  TGI: > 100 µM
[17]
  TGI: > 100 µM
[18]
  TGI: > 100 µM
[19]
  TGI: > 100 µM
[55]
  TGI: > 100 µM
[20]
  TGI: > 100 µM
[21]
  TGI: > 100 µM
[22]
  TGI: > 100 µM
[23]
  TGI: > 100 µM
[24]
  TGI: > 100 µM
[25]
  TGI: > 100 µM
[26]
  TGI: > 100 µM
[27]
  TGI: > 100 µM
[28]
  TGI: > 100 µM
[29]
  TGI: > 100 µM
[30]
  TGI: > 100 µM
[32]
  TGI: > 100 µM
[33]
  TGI: > 100 µM
[34]
  TGI: > 100 µM
[35]
  TGI: > 100 µM
[57]
  TGI: > 100 µM
[36]
  TGI: > 100 µM
[37]
  TGI: > 100 µM
[38]
  TGI: > 100 µM
[58]
  TGI: > 100 µM
[39]
  TGI: > 100 µM
[40]
  TGI: > 100 µM
[41]
  TGI: > 100 µM
[42]
  TGI: > 100 µM
[43]
  TGI: > 100 µM
[44]
  TGI: > 100 µM
[45]
  TGI: > 100 µM
[46]
  TGI: > 100 µM
[47]
  TGI: > 100 µM
[48]
  TGI: > 100 µM
[49]
  TGI: > 100 µM
[50]
  TGI: > 100 µM
[51]
  TGI: > 100 µM
[52]
  TGI: > 100 µM
[53]
  TGI: > 100 µM
[54]
  TGI: > 100 µM
[59]
  TGI: > 100 µM
